Numbered stars: 1 amine (or outer) side, 2 acyl side, 3 side chain; on linkers, the order of the positions; unused ones are H or OH. Side chains are listed from the residue outwards. Ends that are not written are not given here. Peptide text beside a SMILES is read from it. * marks the point of attachment. γGlu = O=C(O)[C@H](CCC(=O)[*:2])N[*:1]; Stearoyl = CCCCCCCCCCCCCCCCCC(=O)*; AEEA = NCCOCCOCC(=O)O
How the values were obtained:
[1] = In vivo plasma metabolite identification (MetID) of GUB03385; parameters: species or system DIO mice; conditions: UPLC-Orbitrap MS; for %AUC 30 min: metabolite of GUB03385 in plasma of DIO mice 30 min after GUB03385 1250 nmol/kg SC; for %AUC 60 min: metabolite of GUB03385 in plasma of DIO mice 60 min after GUB03385 1250 nmol/kg SC; for %AUC 120 min: metabolite of GUB03385 in plasma of DIO mice 120 min after GUB03385 1250 nmol/kg SC
Method: Cardiac blood samples from DIO mice dosed with GUB03385 (1250 nmol/kg, SC, n = 10) were collected after 5, 10, 30, 60 and 120 min. Anaesthesia was performed using 2–4% isoflurane/O2 (Attane Vet., ScanVet Animal Health, Fredensborg, Denmark) inhalation. Blood samples were centrifuged (3000 g, 10 min) and plasma supernatants were stored at − 80 °C until MS analysis which was performed by Admescope Ltd (Oulu, Finland). Plasma precipitation was performed with twofold volume of cold acetonitrile containing 1% of formic acid. After centrifugation ([…], 10 min), supernatant was pipetted to 96-well plate and analysed using a Waters Acquity UPLC coupled to a Thermo Q-Exactive Focus Orbitrap MS. Peptides were separated on a Waters CSH C18 (2.1 × 50 mm, […]) column with a linear gradient from 2 to 40% acetonitrile over 3.5 min at a flowrate of 0.5 mL/min. Mass spectra were acquired in positive ionization mode in the mass range 133–2000 m/z with a resolution of 35,000; MS/MS data were acquired at a resolution of 17,500 in AIF mode with a normalized collision energy of 57. Data analysis and profiling of metabolites was performed by Admescope using Thermo XCalibur 4.1.31.9.

[2] = target: T1, human prolactin releasing peptide receptor (GPR10) (Homo sapiens, UniProt P49683); assay: GPR10 functional activity assay (IP1, HTRF); assay type: cell-based; conditions: Chem-1 cells stably expressing human GPR10, 10.000 cells/well; HTRF IP1 (CisBio); 30 min at 37 °C; IP1 stimulation buffer with 0.05% casein; 11 concentrations
T1 sequence (P49683 1-370): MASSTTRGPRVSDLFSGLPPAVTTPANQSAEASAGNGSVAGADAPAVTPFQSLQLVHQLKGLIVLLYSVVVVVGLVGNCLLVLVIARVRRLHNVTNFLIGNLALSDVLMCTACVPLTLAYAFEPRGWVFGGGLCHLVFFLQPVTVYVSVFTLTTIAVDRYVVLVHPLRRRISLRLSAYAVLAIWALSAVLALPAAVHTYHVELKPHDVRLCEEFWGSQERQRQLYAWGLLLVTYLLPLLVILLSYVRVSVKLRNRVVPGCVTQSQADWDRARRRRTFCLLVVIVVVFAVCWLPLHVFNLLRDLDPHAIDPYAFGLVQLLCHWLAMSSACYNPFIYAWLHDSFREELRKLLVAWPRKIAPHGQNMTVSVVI

human NPFF2R = human NPFF2R (Homo sapiens, UniProt Q9Y5X5); assay: NPFF2R functional activity assay (cAMP, HTRF); assay type: cell-based; conditions: CHO-K1 cells stably expressing human NPFF2R, 1500 cells/well; HTRF cAMP (CisBio); 3 µM forskolin (~90% activity level); 30 min; DPBS, 0.5 mM IBMX, 0.05% casein; 11 concentrations
Sequence of human NPFF2R (Q9Y5X5 whole entry): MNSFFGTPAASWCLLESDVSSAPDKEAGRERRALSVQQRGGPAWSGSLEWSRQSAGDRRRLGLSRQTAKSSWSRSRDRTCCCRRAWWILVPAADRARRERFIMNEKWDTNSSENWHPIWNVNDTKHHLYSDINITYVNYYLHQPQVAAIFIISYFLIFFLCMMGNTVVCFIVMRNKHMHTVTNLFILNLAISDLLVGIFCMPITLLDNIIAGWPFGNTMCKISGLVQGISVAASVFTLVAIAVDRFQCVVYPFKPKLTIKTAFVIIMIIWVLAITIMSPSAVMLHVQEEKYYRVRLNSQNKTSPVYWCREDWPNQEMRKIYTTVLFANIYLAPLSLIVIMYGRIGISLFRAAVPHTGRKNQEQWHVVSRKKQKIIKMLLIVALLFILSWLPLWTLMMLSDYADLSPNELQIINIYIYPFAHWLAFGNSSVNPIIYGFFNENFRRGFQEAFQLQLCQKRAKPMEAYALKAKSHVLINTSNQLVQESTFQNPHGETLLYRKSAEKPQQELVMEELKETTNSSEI
Method: Figure 3 GPR10 and NPFF2R profiling of in vivo metabolites of GUB03385. […] (b) cAMP measurements in human NPFF2R CHO-K cells (HTRF technology, CisBio) at a fixed concentration of 3 µM forskolin after 30 min. incubation at room temperature with metabolites and the native peptide NPSF. Representative curves of three determinations.
The Homogenous Time Resolved Fluorescence (HTRF) technology optimized for Gq coupled receptors has thoroughly been described in the CisBio IP1 kit manual (#62IPAPEC) and in the cAMP assay kit manual for Gi coupled receptors (#62AM9PEC). Briefly, this technic is based on a competitive immunoassay using cryptate-labelled anti-cAMP or anti-IP1 antibodies and d2-labeled cAMP or IP1. In the absence of cellular cAMP or IP1, the anti-cryptate conjugate may get into proximity to the d2 conjugate and energy (FRET) can be transferred from cryptate to d2. Chem-1 cells stably expressing the human prolactin releasing peptide receptor (GPR10, Eurofins, # HTS057C) and irradiated CHO-K1 cells stably expressing the human NPFF2R (PerkinElmer, #ES-490-CF) were applied as cells in suspension, brought to life from frozen cell stocks immediately before assay performance. 384-Well (Corning, #4513) assay formats with a total assay volume of 20 µl were applied. GPR10 cells (10.000 cells/well) were incubated with agonist peptides and the NPFF2R cells (1500 cells/well) were incubated with agonist peptides and forskolin (~ 90% activity level) for 30 min at 37 °C using IP1 kit stimulation buffer and DPBS (Sigma, #D8537) containing 0.5 mM IBMX (Sigma, # I5879), receptively. Both stimulation buffers were supplemented with 0.05% casein (Sigma, # C4765-10 ml). After addition of HTRF® detection reagents and incubation with shaking (2400 rpm) for one hour at room temperature signals at 620 and 665 nm (raw counts: ratio of 665/620) were detected at a ClarioStar plate reader (BMG Labtech, Ortenberg, Germany). Concentration–response evaluation of compounds was performed with 11 concentrations of agonist peptides (covering 3 decades) and EC50 values were calculated by nonlinear regression using sigmoid concentration–response with variable slope. Data were analysed using GraphPad v9.1 software (GraphPad, La Jolla, CA).

| %AUC 30 min [1] [%] | %AUC 60 min [1] [%] | %AUC 120 min [1] [%] | Compound | also measured |
| --- | --- | --- | --- | --- |
|  |  |  | CCCCCCCCCCCCCCCCCC(=O)N[C@@H](CCC(=O)NCCOCCOCC(=O)NCCOCCOCC(=O)NCCCC[C@H](NC(=O)CNC(=O)[C@H](CCCNC(=N)N)NC(=O)[C@H](CO)NC(=O)[C@H](C)NC(=O)[C@H](Cc1ccc(O)cc1)NC(=O)[C@H](Cc1c[nH]c2ccccc12)NC(=O)[C@H](C)NC(=O)[C@@H]1CCCN1C(=O)[C@H](CC(N)=O)NC(=O)[C@@H](NC(=O)[C@H](CC(=O)O)NC(=O)[C@@H]1CCCN1C(=O)[C@@H](NC(=O)[C@H](CCCNC(=N)N)NC(=O)[C@@H](NC(=O)[C@H](CCC(=O)O)NC(=O)[C@H](CCSC)NC(=O)[C@H](CO)NC(=O)[C@H](Cc1c[nH]cn1)NC(=O)[C@H](CCCNC(=N)N)NC(=O)[C@H](Cc1c[nH]cn1)NC(=O)[C@@H](NC(=O)[C@H](CCCNC(=N)N)NC(=O)[C@@H](N)CO)[C@@H](C)O)[C@@H](C)CC)[C@@H](C)O)[C@@H](C)CC)C(=O)N[C@@H](CCCNC(=N)N)C(=O)N1CCC[C@H]1C(=O)N[C@H](C(=O)NCC(=O)N[C@@H](CCCNC(=N)N)C(=O)N[C@@H](Cc1ccccc1)C(N)=O)C(C)C)C(=O)O [GUB03385] (H-SRTHRHSMEIRTPDINPAWYASRGK([AEEA-AEEA-γGlu-Stearoyl])RPVGRF-NH2) | time of degradation after subcutaneous administration ([1]; DIO mice, 1250 nmol/kg SC, plasma): < 30 min |
| 34 | 7 | 1 | CCCCCCCCCCCCCCCCCC(=O)N[C@@H](CCC(=O)NCCOCCOCC(=O)NCCOCCOCC(=O)NCCCC[C@H](NC(=O)CNC(=O)[C@H](CCCNC(=N)N)NC(=O)[C@H](CO)NC(=O)[C@H](C)N)C(=O)N[C@@H](CCCNC(=N)N)C(=O)N1CCC[C@H]1C(=O)N[C@H](C(=O)NCC(=O)O)C(C)C)C(=O)O [GUB08247] (H-ASRGK([AEEA-AEEA-γGlu-Stearoyl])RPVG-OH; C-terminus assumed) |  |
| 11 | 5 |  | CCCCCCCCCCCCCCCCCC(=O)N[C@@H](CCC(=O)NCCOCCOCC(=O)NCCOCCOCC(=O)NCCCC[C@H](NC(=O)CNC(=O)[C@H](CCCNC(=N)N)NC(=O)[C@@H](N)CO)C(=O)N[C@@H](CCCNC(=N)N)C(=O)N1CCC[C@H]1C(=O)N[C@H](C(=O)NCC(=O)N[C@@H](CCCNC(=N)N)C(=O)N[C@@H](Cc1ccccc1)C(N)=O)C(C)C)C(=O)O [GUB08248] (H-SRGK([AEEA-AEEA-γGlu-Stearoyl])RPVGRF-NH2) |  |
| 18 | 9 | 7 | CCCCCCCCCCCCCCCCCC(=O)N[C@@H](CCC(=O)NCCOCCOCC(=O)NCCOCCOCC(=O)NCCCC[C@H](NC(=O)CNC(=O)[C@H](CCCNC(=N)N)NC(=O)[C@@H](N)CO)C(=O)N[C@@H](CCCNC(=N)N)C(=O)N1CCC[C@H]1C(=O)N[C@H](C(=O)NCC(=O)O)C(C)C)C(=O)O [GUB08249] (H-SRGK([AEEA-AEEA-γGlu-Stearoyl])RPVG-OH; C-terminus assumed) |  |
| 48 | 23 | 14 | CCCCCCCCCCCCCCCCCC(=O)N[C@@H](CCC(=O)NCCOCCOCC(=O)NCCOCCOCC(=O)NCCCC[C@H](NC(=O)CNC(=O)[C@H](CCCNC(=N)N)NC(=O)[C@@H](N)CO)C(=O)N[C@@H](CCCNC(=N)N)C(=O)N1CCC[C@H]1C(=O)N[C@H](C(=O)O)C(C)C)C(=O)O [GUB08250] (H-SRGK([AEEA-AEEA-γGlu-Stearoyl])RPV-OH; C-terminus assumed) |  |
|  | 7 | 8 | CCCCCCCCCCCCCCCCCC(=O)N[C@@H](CCC(=O)NCCOCCOCC(=O)NCCOCCOCC(=O)NCCCC[C@H](NC(=O)CN)C(=O)N[C@@H](CCCNC(=N)N)C(=O)N1CCC[C@H]1C(=O)N[C@H](C(=O)NCC(=O)N[C@@H](CCCNC(=N)N)C(=O)N[C@@H](Cc1ccccc1)C(N)=O)C(C)C)C(=O)O [GUB08251] (H-GK([AEEA-AEEA-γGlu-Stearoyl])RPVGRF-NH2) |  |
|  | 11 | 10 | CCCCCCCCCCCCCCCCCC(=O)N[C@@H](CCC(=O)NCCOCCOCC(=O)NCCOCCOCC(=O)NCCCC[C@H](N)C(=O)N[C@@H](CCCNC(=N)N)C(=O)N1CCC[C@H]1C(=O)N[C@H](C(=O)NCC(=O)N[C@@H](CCCNC(=N)N)C(=O)O)C(C)C)C(=O)O [GUB08252] (H-K([AEEA-AEEA-γGlu-Stearoyl])RPVGR-OH; C-terminus assumed) |  |
|  | 11 | 15 | CCCCCCCCCCCCCCCCCC(=O)N[C@@H](CCC(=O)NCCOCCOCC(=O)NCCOCCOCC(=O)NCCCC[C@H](N)C(=O)N[C@@H](CCCNC(=N)N)C(=O)N1CCC[C@H]1C(=O)N[C@H](C(=O)NCC(=O)O)C(C)C)C(=O)O [GUB08253] (H-K([AEEA-AEEA-γGlu-Stearoyl])RPVG-OH; C-terminus assumed) |  |
|  | 5 | 11 | CCCCCCCCCCCCCCCCCC(=O)N[C@@H](CCC(=O)NCCOCCOCC(=O)NCCOCCOCC(=O)NCCCC[C@H](N)C(=O)N[C@@H](CCCNC(=N)N)C(=O)N1CCC[C@H]1C(=O)N[C@H](C(=O)O)C(C)C)C(=O)O [GUB08254] (H-K([AEEA-AEEA-γGlu-Stearoyl])RPV-OH; C-terminus assumed) |  |
|  |  |  | CC(C)C[C@H](NC(=O)[C@H](Cc1ccccc1)NC(=O)[C@H](C)NC(=O)[C@H](CCC(N)=O)NC(=O)[C@@H](N)CO)C(=O)N[C@@H](Cc1ccccc1)C(=O)N[C@@H](CCC(N)=O)C(=O)N1CCC[C@H]1C(=O)N[C@@H](CCC(N)=O)C(=O)N[C@@H](CCCNC(=N)N)C(=O)N[C@@H](Cc1ccccc1)C(N)=O [NPSF, neuropeptide SF] | EC50 [2]: > 5000 nM; EC50 (human NPFF2R): 5.6 nM |
|  |  |  | CC[C@H](C)[C@H](NC(=O)CNC(=O)[C@H](CCCNC(=N)N)NC(=O)[C@H](CO)NC(=O)[C@H](C)NC(=O)[C@H](Cc1ccc(O)cc1)NC(=O)[C@H](Cc1c[nH]c2ccccc12)NC(=O)[C@H](C)NC(=O)[C@@H]1CCCN1C(=O)[C@H](CC(N)=O)NC(=O)[C@@H](NC(=O)[C@H](CC(=O)O)NC(=O)[C@@H]1CCCN1C(=O)[C@@H](NC(=O)[C@H](CCCNC(=N)N)NC(=O)[C@@H](NC(=O)[C@H](CCC(=O)O)NC(=O)[C@H](CCSC)NC(=O)[C@H](CO)NC(=O)[C@H](Cc1c[nH]cn1)NC(=O)[C@H](CCCNC(=N)N)NC(=O)[C@H](Cc1c[nH]cn1)NC(=O)[C@@H](NC(=O)[C@H](CCCNC(=N)N)NC(=O)[C@@H](N)CO)[C@@H](C)O)[C@@H](C)CC)[C@@H](C)O)[C@@H](C)CC)C(=O)N[C@@H](CCCNC(=N)N)C(=O)N1CCC[C@H]1C(=O)N[C@H](C(=O)NCC(=O)N[C@@H](CCCNC(=N)N)C(=O)N[C@@H](Cc1ccccc1)C(N)=O)C(C)C [PrRP31] | EC50 (human NPFF2R): > 5000 nM |
|  |  |  | TPDINPAWYASRGIRPVGRF-NH2 [PrRP20] | EC50 [2]: 0.2 nM; EC50 (human NPFF2R): > 5000 nM |

— article PMC8807614 (Scientific Reports, 2022)
